{"source": "patent US9447157B2", "about": "“Nitration shielding peptides and methods of use thereof” (Augusta University Research Institute, Inc., priority 2013, dated 2016)", "key": {"[1]": {"target": "T1, PKG-1α (Homo sapiens, UniProt Q13976, Y247F)", "T1 sequence (Q13976 2-671 Y247F)": "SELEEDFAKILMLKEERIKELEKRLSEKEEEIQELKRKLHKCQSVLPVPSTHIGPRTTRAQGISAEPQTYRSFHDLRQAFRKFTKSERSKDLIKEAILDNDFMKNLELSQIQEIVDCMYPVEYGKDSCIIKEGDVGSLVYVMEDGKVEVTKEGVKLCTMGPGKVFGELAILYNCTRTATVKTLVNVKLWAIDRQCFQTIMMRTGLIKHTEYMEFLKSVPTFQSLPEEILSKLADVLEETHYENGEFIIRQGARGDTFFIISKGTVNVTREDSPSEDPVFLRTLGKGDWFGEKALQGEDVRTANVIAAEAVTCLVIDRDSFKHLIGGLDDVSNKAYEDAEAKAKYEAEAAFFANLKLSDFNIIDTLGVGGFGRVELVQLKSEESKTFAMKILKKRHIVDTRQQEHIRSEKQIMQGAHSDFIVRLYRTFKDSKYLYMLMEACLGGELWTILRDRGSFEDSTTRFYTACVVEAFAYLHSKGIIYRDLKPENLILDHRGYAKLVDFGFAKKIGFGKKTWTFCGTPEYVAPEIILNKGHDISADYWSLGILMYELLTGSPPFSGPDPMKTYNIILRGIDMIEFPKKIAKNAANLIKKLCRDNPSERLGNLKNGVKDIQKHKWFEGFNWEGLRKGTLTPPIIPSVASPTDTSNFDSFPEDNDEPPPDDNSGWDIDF", "test": "[3H]cGMP dissociation/exchange assay", "type": "binding", "details": "SIN-1 500 μM 30 min", "procedure": "(§1) WT- and Y247F-PKG-1α were immunopurified, as described above then incubated for 60 min at room temperature with 3 ml of cGMP-binding assay mixture containing 3 μM [^3H]cGMP. This incubation time and dose has been previously experimentally determined to be adequate for the saturation of the cGMP-binding sites in PKG. After incubation, the samples were cooled to 4° C. and divided into 200 μl aliquots per tube. The addition of 100-fold excess unlabeled cGMP at time 0 sec (Bo) initiated the dissociation (exchange) of the bound [^3H]cGMP. The cGMP exchange in each tube was stopped at the appropriate time point by the addition of 2 ml of cold aqueous saturated (NH4)2SO4. The samples were filtered, washed, and the portion of bound [^3H]cGMP at any time point was determined, as described previously."}, "[2]": {"target": "T2, PKG-1α (Homo sapiens, UniProt Q13976)", "T2 construct": "transfected with an expression plasmid containing a full length WT-PKG-1α cDNA; made in house; host or cells: HEK-293T (methods); the results paragraph b527 says PASMC", "T2 sequence (Q13976 2-671)": "T1 sequence (Q13976 2-671 Y247F) with F246Y", "test": "[3H]cGMP dissociation/exchange assay", "type": "binding", "details": "SIN-1 500 μM 30 min", "procedure": "as §1"}, "[3]": {"target": "T2, PKG-1α", "test": "3-NT-Y247-PKG-1α immunoblot in transfected PASMC", "type": "cell-based", "details": "PASMC transfected with WT-PKG-1α, SIN-1 500 μM 30 min", "procedure": "The 3-NT Y247 PKG-1α specific antibody was raised against a synthetic peptide antigen ENGE(Y-NO2)[…], where Y-NO2 represent 3-nitrotyrosine. The peptide was used to immunize rabbits. Tyrosine nitration-reactive rabbit antiserum was first purified by affinity chromatography. Further purification was carried out using immunodepletion by non-nitrated peptide […] resin chromatography, after which the resulting eluate was tested for antibody specificity by immunoblotting and immune-histochemistry with fluorescent staining.\nCells were prepared as previously described (Sud, N., et al., American Journal of Physiology 293, L1444-1453 (2007); Sharma, S., et al., American Journal of Physiology 294, L46-56 (2008)). Briefly, the cellular protein extracts were prepared by homogenizing the cells in lysis buffer (50 mM Tris-HCl, pH 7.6, 0.5% Triton X-100, and 20% glycerol) containing Halt protease inhibitor cocktail (Pierce, Rockford, Ill.). The extracts were then clarified by centrifugation (20,000 g for 20 min at 4° C.). […] Reactive bands were visualized using chemi-luminescence (Pierce Laboratories, Rockford, Ill.) on a Kodak 440CF image station. The band intensity was quantified using Kodak 1D image processing software. […]\nPASMC were transiently transfected with expression plasmids containing WT- or Y247FPKG-1α for 48 h. […] The fluorescent-stained sections were analyzed using confocal microscopy."}}, "note": "Positions count from the first letter of the chain named.", "data": [{"substance": "3-morpholinosydnonimine N-ethylcarbamide [SIN-1]", "values": [{"measurement": "[3H]cGMP exchange/dissociation from Y247F mutant", "setting": "[1]", "value": "but not from the Y247F mutant"}, {"measurement": "[3H]cGMP exchange/dissociation from WT-PKG-1α", "setting": "[2]", "value": "enhanced"}, {"measurement": "WT-PKG-1α nitration (3-NT-Y247-PKG-1α antibody)", "setting": "[3]", "value": "significantly increased"}]}]}
